Where “and” joins values, the source holds several entries; their conditions need not be identical. Equal entries are not always repeated.
Test system: PC12 cells
Assay: Segmentation of WGA stained PC12 cells treated with thymidine (cell size by automated 3D segmentation)
Type: cell-based, rat
Description: PC12 and NRK cells were cultured in DMEM supplemented with 10% fetal calf serum and 5% horse serum. For high-resolution fluorescence microscopy and light microscope analysis, PC 12 cells were plated in LabTek™ chambered swell cover glasses (Nalge Nunc Int., Wiesbaden, Germany). Two hours after plating, the cells were stained with two dyes. For the experiments in which the effect of thymidine on cellular size and morphology was investigated, PC12 cells were plated on LabTek™ chambered swell cover glasses. 24 hours after plating, fresh growth medium containing 4 mM thymidine (Sigma) was added to the cells. In the control condition, fresh growth medium without thymidine was used. 24 hours afterwards cells were washed once with prewarmed fresh growth medium and grown further in growth medium without thymidine. […] To specifically display cell borders, cells were stained with wheat germ agglutinin (WGA) conjugated to either AlexaFluor™488 or AlexaFluor™594 (Invitrogen). WGA-AlexaFluor™594 is a lectin which binds glycogenfugates like N-acetylglucosamine and therefore stains biological membranes efficiently. CellTracker™ (CellTracker™, Molecular Probes Inc., Eugene, Oreg., USA) passes freely through cell membranes, but once inside a cell, it is transformed into cell-impermeant reaction products and is retained in living cells through several generations. […]
High resolution, […] fluorescence microscopy was performed with an Olympus IX70 microscope (Olympus Optical Co. Europa GmbH, Hamburg) or a Zeiss Axiovert 200M (Bergman A S, Lilleström, Norway) both equipped with 100× oil-immersion objectives, monochromator-based illumination systems (T.I.L.L. Photonics GmbH, Martinsried, Germany), tripleband filtersets DAPI/FITC/TRITC F61-020 (AHF Analysetechnik AG, Tübingen, Germany) and piezo z-steppers (Physik Instrumente GmbH & Co., Karlsruhe, Germany). […] With both the wide-field and confocal imaging setups, WGA-stained cells were analyzed in 3D by acquiring single focal planes 300 to 400 nm apart from each other in the z-direction spanning the whole cellular volume. […]

[1] = 4 mM thymidine for 24 hours, then 24 hours without, mid plane 2D, mean and SEM, three experiments, listed as tymidine

Structure (SMILES): Cc1cn([C@H]2C[C@H](O)[C@@H](CO)O2)c(=O)[nH]c1=O [thymidine]
- Dmaj (+): mean major axis length, treated group [1]: 15.26 + 0.40 μm and 16.79 + 0.32 μm and 15.83 + 0.25 μm
- Dmin (+): mean minor axis length, treated group [1]: 9.98 + 0.32 μm and 9.21 + 0.19 μm and 9.01 + 0.18 μm
- mean size of a cell treated with thymidine compared to a control group (conclusion from three experiments): increase

Reference: US20090081775A1, “Microscope system and screening method for drugs, physical therapies and biohazards” (Stiftesen Unversitetsforskning Bergen, priority 2005, published 2009)
